Entries after “also recorded” stand apart in the source; their conditions may differ.
Assays:
[1] = Tolerability (body weight loss, deaths) in MC-38 tumor-bearing cohorts; assay type: in vivo; conditions: for Deaths (any cause) / Maximum % Body Weight Loss: MC-38 tumor-bearing mice
Protocol: As monotherapy, anti-PD-1 was administered twice weekly (BIW) for 2 consecutive weeks by intraperitoneal (IP) injection at 200 μg/mouse (Days 10, 13, 17, and 20).
Animals were monitored for tumor growth and body weight 2-3 times per week based on outgrowth kinetics. Tumor diameter was measured with digital calipers, and the tumor volume in mm^3 was calculated by the formula: Volume=((width)^2×length)/2. Animals were removed from study if found moribund or if tumor volume exceeded 1500 mm^3.
Any animals remaining with no palpable tumors were scored as cures.
Survival was defined as morbidity, mortality or tumor size exceeding 1500 mm^3.

[2] = Tolerability (body weight loss, deaths) in tumor-naive cohorts; assay type: in vivo; conditions: tumor-naive mice
Protocol: Anti-PD-1 was administered twice weekly (BIW) for 2 consecutive weeks by intraperitoneal (IP) injection at 200 μg/mouse. […] Concomitantly, a set of satellite cohorts comprising tumor-naïve mice was treated with the same schedules and doses as indicated above. […]

C57BL/6 mice = assay: Ocular histopathology (retina) in mice at terminal (Day 38) and recovery (Day 66) necropsy; assay type: in vivo; conditions: for animals affected by swelling of rod and cone processes (incidence and grade): terminal necropsy
Protocol: Eyes were harvested for histopathology assessment from the tumor-naïve groups as the terminal necropsy cohort on Day 38, the last day the 28-day dosing period. Since not all terminal necropsy groups were dosed for the entirety of the 28-day dosing period, some groups effectively experienced a 1-3 week recovery period. Eyes were harvested for histopathology assessment from the tumor-bearing groups as the recovery necropsy cohort on Day 66, the last day of the 28-day recovery period. Since not all recovery necropsy groups were dosed for the entirety of the 28-day dosing period, some of these groups effectively experienced an extended recovery period beyond the 28-day recovery period of an additional 1-3 weeks. […] This finding was only visualized under epifluorescent illumination and was characterized by scattered individual processes that were increased in diameter up to five times the surrounding processes, with increased autofluorescence. […] It remained unclear whether these findings were adverse, as no degenerative changes were observed. If the material affected vision, it would be considered adverse; however, as this study was not designed to test for alterations in vision, adversity could not be determined.
Terminal necropsy from non-tumor-bearing cohorts occurred at 28 days from the start of dosing, and eyes from 4-5 animals in each group were harvested for histopathology assessment. Since not all terminal necropsy groups were dosed for the entirety of the 28-day dosing period, some groups effectively experienced a 1-3 week recovery period. Recovery sacrifice from tumor-bearing cohorts occurred at 28 days after the 28-day dosing period, and eyes from 5 animals in each group were harvested for histopathology assessment. Since not all recovery necropsy groups were dosed for the entirety of the 28-day dosing period, some groups effectively experienced an extended recovery period beyond the 28-day recovery period of 1-3 weeks. Briefly, animals were euthanized by CO2 inhalation and eyes were harvested with forceps and placed in 1.5 mL modified Davidson's Fixative (Electron Microscopy Science, Cat. No. 64133-50, lot no. 190621-08) for up to 24 hours at room temperature. Tissues were then transferred to 1.5 ml 10% neutral buffered formalin (Thermo Scientific, cat. no. 9400-5, lot no. 435456) at room temperature. Fixed tissues were submitted Vet Path Services, Inc. (Mason, Ohio) for histological processing and microscopic evaluation.
Provantis™ pathology software v 10.1.0.1 was utilized for data capture and table generation. Histopathology grades were assigned as grade 1 (minimal), grade 2 (mild), grade 3 (moderate), grade 4 (marked), or grade 5 (severe) based on an increasing extent of change, unless otherwise specified. H&E stained slides were evaluated with standard light microscopy and epifluorescence (450-490 nm excitation).

Sprague Dawley rats = assay: 28-day repeat dose oral toxicity and toxicokinetic study with 28-day recovery period; assay type: in vivo
CYP3A4 = CYP3A4 (Homo sapiens, UniProt P08684); assay: In vitro metabolism by CYP3A4; assay type: in vitro ADME
CYP2D6 = CYP2D6 (Homo sapiens, UniProt P10635); assay: In vitro metabolism by CYP2D6; assay type: in vitro ADME
P-gp = P-gp (Homo sapiens, UniProt P08183); assay: P-gp substrate assessment in vitro; assay type: in vitro ADME
Aqueous solubility = assay type: physicochemical
syngeneic tumor = assay: Re-challenge of cured tumor-bearing mice with the same syngeneic tumor; assay type: in vivo; conditions: tumor-bearing mice cured following treatment with Compound 1
[3] = tested on: female Sprague Dawley rats; conditions: female, Sprague Dawley, rat, in vivo
in vivo = conditions: female, rat
[4] = Compound 1 50 mg/kg PO BID Days 10-16 (7 days) in combination with anti-PD-1 200 μg IP BIW (Days 10, 13, 17, 20)
[5] = Compound 1 50 mg/kg PO BID Days 10-16 and Days 24-30 (interval schedule) in combination with anti-PD-1 200 μg IP BIW (Days 10, 13, 17, 20)
[6] = Compound 1 50 mg/kg PO BID Days 10-23 (14 days) in combination with anti-PD-1 200 μg IP BIW (Days 10, 13, 17, 20)
[7] = Compound 1 50 mg/kg PO BID Days 10-30 (21 days) in combination with anti-PD-1 200 μg IP BIW (Days 10, 13, 17, 20)
[8] = Compound 1 50 mg/kg PO BID Days 10-37 (28 days) in combination with anti-PD-1 200 μg IP BIW (Days 10, 13, 17, 20)
[9] = Compound 1 monotherapy, 50 mg/kg PO BID Days 10-37 (28 days)
[10] = Compound 1 50 mg/kg PO BID Days 10-16/24-30 in combination with anti-PD-1 200 μg IP BIW
[11] = Compound 1 50 mg/kg PO BID Days 10-16 in combination with anti-PD-1 200 μg IP BIW
[12] = Compound 1 50 mg/kg PO BID Days 10-23 in combination with anti-PD-1 200 μg IP BIW
[13] = Compound 1 50 mg/kg PO BID Days 10-30 in combination with anti-PD-1 200 μg IP BIW
[14] = Compound 1 50 mg/kg PO BID Days 10-37 in combination with anti-PD-1 200 μg IP BIW
[15] = Compound 1 monotherapy, 50 mg/kg PO BID Days 10-37
[16] = oral QD 28 days at 30, 100 or 300/200 mg/kg

Chain of CYP2D6 (P10635 whole entry): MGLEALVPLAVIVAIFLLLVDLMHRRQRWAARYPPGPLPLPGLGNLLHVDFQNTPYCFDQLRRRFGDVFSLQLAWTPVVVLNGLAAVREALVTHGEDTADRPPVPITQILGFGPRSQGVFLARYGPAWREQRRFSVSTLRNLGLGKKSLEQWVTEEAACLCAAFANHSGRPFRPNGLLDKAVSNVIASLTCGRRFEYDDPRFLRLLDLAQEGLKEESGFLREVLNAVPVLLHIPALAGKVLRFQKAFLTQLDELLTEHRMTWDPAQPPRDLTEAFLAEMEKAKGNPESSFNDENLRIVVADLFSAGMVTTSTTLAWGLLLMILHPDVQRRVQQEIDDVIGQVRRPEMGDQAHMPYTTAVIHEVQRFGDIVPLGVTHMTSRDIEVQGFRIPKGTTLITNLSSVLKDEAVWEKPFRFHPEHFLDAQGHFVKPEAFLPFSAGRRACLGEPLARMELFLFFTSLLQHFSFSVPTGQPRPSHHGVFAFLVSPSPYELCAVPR
Chain of P-gp (P08183 whole entry): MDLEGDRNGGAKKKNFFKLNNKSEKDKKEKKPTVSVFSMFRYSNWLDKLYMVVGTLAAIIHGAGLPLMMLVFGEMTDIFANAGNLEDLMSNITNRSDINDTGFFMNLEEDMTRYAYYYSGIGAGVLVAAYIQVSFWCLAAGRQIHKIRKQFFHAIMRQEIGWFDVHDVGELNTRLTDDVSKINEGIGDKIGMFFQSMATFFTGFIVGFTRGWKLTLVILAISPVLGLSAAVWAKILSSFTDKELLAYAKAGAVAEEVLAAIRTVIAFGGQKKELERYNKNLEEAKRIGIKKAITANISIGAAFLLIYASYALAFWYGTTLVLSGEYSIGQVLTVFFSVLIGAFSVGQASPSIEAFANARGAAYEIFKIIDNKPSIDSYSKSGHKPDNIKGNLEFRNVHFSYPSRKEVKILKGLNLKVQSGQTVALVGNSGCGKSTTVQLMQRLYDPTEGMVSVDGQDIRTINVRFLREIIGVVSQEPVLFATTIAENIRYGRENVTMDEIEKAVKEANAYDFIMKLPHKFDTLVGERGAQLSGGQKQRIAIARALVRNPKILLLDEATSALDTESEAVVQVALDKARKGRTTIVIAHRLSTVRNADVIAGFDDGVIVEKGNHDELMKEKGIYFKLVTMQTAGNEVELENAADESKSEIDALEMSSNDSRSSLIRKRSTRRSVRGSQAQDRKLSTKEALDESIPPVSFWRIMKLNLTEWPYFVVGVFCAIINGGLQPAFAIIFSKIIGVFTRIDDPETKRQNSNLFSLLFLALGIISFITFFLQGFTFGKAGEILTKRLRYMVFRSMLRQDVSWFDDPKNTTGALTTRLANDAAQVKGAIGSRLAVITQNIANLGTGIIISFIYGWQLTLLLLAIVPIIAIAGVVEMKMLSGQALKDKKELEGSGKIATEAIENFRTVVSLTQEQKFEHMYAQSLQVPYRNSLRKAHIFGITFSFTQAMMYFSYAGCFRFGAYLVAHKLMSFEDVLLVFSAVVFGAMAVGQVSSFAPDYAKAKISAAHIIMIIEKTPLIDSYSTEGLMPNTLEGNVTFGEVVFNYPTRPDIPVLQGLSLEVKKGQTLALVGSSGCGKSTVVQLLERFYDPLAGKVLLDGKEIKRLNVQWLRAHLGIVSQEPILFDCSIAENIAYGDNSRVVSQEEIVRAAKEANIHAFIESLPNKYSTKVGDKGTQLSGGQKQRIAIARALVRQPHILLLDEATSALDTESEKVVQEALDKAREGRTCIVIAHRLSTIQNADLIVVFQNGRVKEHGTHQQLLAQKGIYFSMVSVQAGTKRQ
Chain of CYP3A4 (P08684 whole entry): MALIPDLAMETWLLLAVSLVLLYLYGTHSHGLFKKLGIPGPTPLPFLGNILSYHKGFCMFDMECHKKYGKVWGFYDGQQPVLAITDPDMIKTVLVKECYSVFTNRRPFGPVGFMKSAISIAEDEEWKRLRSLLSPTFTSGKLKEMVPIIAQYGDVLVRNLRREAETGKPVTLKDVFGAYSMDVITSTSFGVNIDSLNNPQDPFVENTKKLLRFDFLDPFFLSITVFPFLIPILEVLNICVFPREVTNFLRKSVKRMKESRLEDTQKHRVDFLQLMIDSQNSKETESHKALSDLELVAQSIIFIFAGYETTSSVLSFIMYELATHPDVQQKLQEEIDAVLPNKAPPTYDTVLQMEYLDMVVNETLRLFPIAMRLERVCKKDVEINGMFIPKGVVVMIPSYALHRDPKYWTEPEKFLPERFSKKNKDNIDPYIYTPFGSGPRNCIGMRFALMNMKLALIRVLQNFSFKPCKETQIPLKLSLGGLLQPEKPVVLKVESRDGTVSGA

For `CC(C)n1cc(C(=O)Nc2ccc(Oc3ccnc4[nH]nc(N[C@H](C)CO)c34)c(F)c2)c(=O)n(-c2ccc(F)cc2)c1=O` [Compound 1, (R)—N-(3-fluoro-4-((3-((1-hydroxypropan-2-yl)amino)-1H-pyrazolo[3,4-b]pyridin-4-yl)oxy)phenyl)-3-(4-fluorophenyl)-1-isopropyl-2,4-dioxo-1,2,3,4-tetrahydropyrimidine-5-carboxamide], the “tolerability of doses and schedules” value ([1]; MC-38 study, Compound 1 50 mg/kg BID 7-28 days, monotherapy or with anti-PD-1 200 μg BIW, 50 mg/kg) was “tolerated as monotherapy and in combination with anti-PD-1; also recorded: tolerated at these doses and schedules”, the “Deaths (any cause)” value [1, 4] was 0/8 and the “Maximum % Body Weight Loss” value [1, 4] was 0.00%. For the same compound, the “Deaths (any cause)” value [1, 5] was 0/8, the “Maximum % Body Weight Loss” value [1, 5] was 0.23% and the “Deaths (any cause)” value [1, 6] was 0/8. The “Maximum % Body Weight Loss” value [1, 6] was 0.00%, the “Deaths (any cause)” value [1, 7] was 0/8 and the “Maximum % Body Weight Loss” value [1, 7] was 2.98%. For the same compound, the “Deaths (any cause)” value [1, 8] was 1/8, the “Maximum % Body Weight Loss” value [1, 8] was 0.00% and the “Deaths (any cause)” value [1, 9] was 2/8. For the same compound, the “Maximum % Body Weight Loss” value [1, 9] was 5.17%, the “Deaths (any cause)” value [2, 10] was 0/5 and the “Maximum % Body Weight Loss” value [2, 10] was 0.00%. For the same compound, the “Deaths (any cause)” value [2, 11] was 0/5, the “Maximum % Body Weight Loss” value [2, 11] was 0.00% and the “Deaths (any cause)” value [2, 12] was 1/5. The “Maximum % Body Weight Loss” value [2, 12] was 0.00%, the “Deaths (any cause)” value [2, 13] was 1/5 and the “Maximum % Body Weight Loss” value [2, 13] was 0.00%. The “Deaths (any cause)” value [2, 14] was 0/5, the “Maximum % Body Weight Loss” value [2, 14] was 0.00% and the “Deaths (any cause)” value [2, 15] was 0/5. The “Maximum % Body Weight Loss” value [2, 15] was 0.00%, the “abnormal ocular observation at recovery sacrifice (unlikely to be related to the test article)” value (C57BL/6 mice; Day 66, Compound 1 for four weeks in combination with anti-PD-1) was “unilateral focal atrophy of the outer nuclear layer in Animal 4” and the “recovery period within which Compound 1-related microscopic retinal changes may be resolved” value (C57BL/6 mice; mice, histopathology assessment of the retinas) was 1-4 week. For the same compound, the “animals affected by swelling of rod and cone processes (incidence and grade)” value (C57BL/6 mice; Compound 1 for four weeks as monotherapy) was “three animals were minimally affected and two animals were mildly affected”, the “animals affected by swelling of rod and cone processes (incidence and grade)” value (C57BL/6 mice; Compound 1 for four weeks in combination with anti-PD-1) was “four of five animals were minimally affected” and the “test article-related ocular changes at recovery sacrifice” value (C57BL/6 mice; tumor-bearing mice, Day 66, 28 days after the 28-day dosing period) was “no definitively Compound 1-related changes were observed; also recorded: no definitively test article-related changes were observed”. For the same compound, the “test article-related microscopic changes in retina at terminal necropsy” value (C57BL/6 mice; tumor-naive mice, Day 38, Compound 1 50 mg/kg BID for 28 days (four weeks), as monotherapy or in combination with anti-PD-1, seen only under epifluorescent illumination, 50 mg/kg) was “multifocal swelling of the rod and cone processes in the retina; also recorded: multifocal swelling of the Rod and Cone processes in retina”, the “adversity of changes in the eyes and testes” value (Sprague Dawley rats; oral QD 28 days) was “considered to be adverse” and the “dose with structural/functional changes in the eyes (outer retinal atrophy), female” value (Sprague Dawley rats; [16]) was 30 mg/kg. The “dose with structural/functional changes in the eyes (outer retinal atrophy), males” value (Sprague Dawley rats; [16]) was 100 mg/kg, the “reversibility of outer retinal atrophy” value (Sprague Dawley rats; oral QD 28 days, 28-day recovery period) was “unrecoverable” and the “metabolizing enzyme in vitro” value (CYP3A4) was “primarily metabolized by CYP3A4 and CYP2D6”. For the same compound, the “metabolizing enzyme in vitro” value (CYP2D6) was “primarily metabolized by CYP3A4 and CYP2D6”, the P-gp substrate status (P-gp) was “substrate of P-gp and BCRP” and the aqueous solubility (Aqueous solubility) was “pH dependent”. The “response of cured mice to subsequent re-challenge with the same syngeneic tumor” value (syngeneic tumor) was “resistant to subsequent re-challenge with the same syngeneic tumor”, the “therapeutic multiples compared to expected exposure at the starting dose of 25 mg QD” value [3] was 39-78 and the “STD10 for 14 days once daily dose administration” value ([3]; 14 days) was 100 mg/kg. The NOAEL at 7 days (in vivo) was 200 mg/kg.
